Source: US20240199702A1, “CELL-PERMEABLE CYCLIC PEPTIDES AND USES THEREOF” (Unnatural Products Inc., priority 2021, published 2024)
*1 amine or outer side, *2 acyl side, *3 side chain or, on linkers, in order; H or OH if unused. Where a SMILES comes first, the peptide text is derived from it. [ ]: non-standard residue; d: D form. The star is where a group is joined. ξ: configuration not given here. Ala(thiazol-5-yl) = N[C@@H](Cc1cncs1)C(=O)O; Ala(4-thiazolyl) = N[C@@H](Cc1cscn1)C(=O)O; NMePhe(4-F) = CN[C@@H](Cc1ccc(F)cc1)C(=O)O; Phe(4-Cl) = N[C@@H](Cc1ccc(Cl)cc1)C(=O)O; Phe(4-F) = N[C@@H](Cc1ccc(F)cc1)C(=O)O; X2 = CC1(C)CN([*:1])[C@@H]1C(=O)[*:2]; NMeF = CN[C@@H](Cc1ccccc1)C(=O)O; NMeT = CN[C@H](C(=O)O)[C@@H](C)O; NMeV = CN[C@H](C(=O)O)C(C)C; hSer = N[C@@H](CCO)C(=O)O; NMeA = CN[C@@H](C)C(=O)O; dNMeA = CN[C@H](C)C(=O)O; ξNMeV = CNC(C(=O)O)C(C)C; Aze = O=C(O)[C@@H]1CCN1; NBuGly = CCCCNCC(=O)O; Butyryl = CCCC(=O)*; Nme = COCCNCC(=O)O; NEtG = CCNCC(=O)O; Sar = CNCC(=O)O

Assays:
Human MDM2 (HDM2) 1-116 = target: T1, Human MDM2 (HDM2) 1-116 (Homo sapiens, UniProt Q00987); assay: Fluorescence Polarization Assay 1 (MDM2/p53 peptide); type: binding; settings: FAM-labeled p53 peptide, 60 minutes
T1 construct: Human MDM2 (HDM2) 1-116
Method: Fluorescence Polarization Assay 1
(§1) Human MDM2 (HDM2) 1-116 (20 μL) and FAM-labeled GGTSFAEYWNLLSP-NH2, 10 nM and 5 nM respectively in 10 mM Tris, 50 mM NaCl, 0.01% Tween20, and 1 mM DTT at pH 7.4 were dispensed into an opaque, black, 384 well plate. Compounds dissolved in DMSO were pin transferred (˜100-200 nL) to the 384 well plate containing the MDM2/p53 solution. After incubation for 60 minutes, the fluorescence polarization was read on a Molecular Devices SpectraMax plate reader equipped with a Fluorescein FP cartridge. In addition to probe alone (positive control) and probe/MDM2 (negative control), a titration of linear p53(18-26) was included on every plate as an additional control. IC50 values were fit using either Prism or Collaborative Drug Discovery.

Human MDM4 (HDM4) 1-114 = target: T2, Human MDM4 (HDM4) 1-114 (Homo sapiens, UniProt O15151); assay: Fluorescence Polarization Assay 2 (MDM4/p53 peptide); type: binding; settings: FAM-labeled p53 peptide, 60 minutes
T2 construct: Human MDM4 (HDM4) 1-114
T2 sequence (O15151 1-114): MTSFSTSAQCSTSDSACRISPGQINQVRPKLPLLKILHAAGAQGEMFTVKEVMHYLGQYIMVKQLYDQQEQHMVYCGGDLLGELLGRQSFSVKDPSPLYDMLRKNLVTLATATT
Method: Fluorescence Polarization Assay 2
as §1, with “MDM4 (HDM4) 1-114” for “MDM2 (HDM2) 1-116”, “GGTSFAEYWNLLSP —NH2, 20” for “GGTSFAEYWNLLSP-NH2, 10”, “(−100-200” for “(˜100-200”, “MDM4/p53” for “MDM2/p53”, “probe/MDM4” for “probe/MDM2”

MOLM-13 cells = assay: Cellular Fluorescence Assay 1 (CellTiter-Glo, 72 hours); type: cell-based
Method: Cellular Fluorescence Assay 1
(§2) MOLM-13 cells were grown in suspension in T75 flasks in RPMI medium with 10% fetal bovine serum (FBS) at 37° C. with 5% CO2. 40 μL ofMOLM-13 cells were plated into columns 1-22 of white, flat bottom, 384 well plates at a density of 1,000 cells per well in RPMI with 10% FBS. Columns 23 and 24 were filled with 40 μL of media as a positive control. 100 nL of compounds dissolved in DMSO were pin transferred into columns 3-22 of the 384 well plate. Columns 1 and 2 served as negative control wells. Plates were incubated for 72 hours at 37° C. with 5% CO2. After incubation, the cells were given 10 μL of CellTiter-Glo® (Promega®). Luminescence was read on a Molecular Devices SpectraMax i3x plate reader.

MV4-11 cells = assay: Cellular Fluorescence Assay 2 (CellTiter-Glo, 72 hours); type: cell-based
Method: Cellular Fluorescence Assay 2
as §2, with “MV4-11” for “MOLM-13”, “of MV4-11” for “ofMOLM-13”

WaGa cells = assay: Cellular Fluorescence Assay 3 (CellTiter-Glo, 72 hours); type: cell-based
Method: Cellular Fluorescence Assay 3
as §2, with “WaGa” for “MOLM-13”, “of WaGa” for “ofMOLM-13”

MKL-1 cells = assay: Cellular Fluorescence Assay 4 (CellTiter-Glo, 72 hours); type: cell-based
Method: Cellular Fluorescence Assay 4
as §2, with “MKL-1” for “MOLM-13”, “MKL-1” for “ofMOLM-13”, “reader. In some embodiments, the cyclic peptide described herein is a cyclic peptide depicted in Table 1: […]” for “reader.”

T1 sequence (Q00987 1-116): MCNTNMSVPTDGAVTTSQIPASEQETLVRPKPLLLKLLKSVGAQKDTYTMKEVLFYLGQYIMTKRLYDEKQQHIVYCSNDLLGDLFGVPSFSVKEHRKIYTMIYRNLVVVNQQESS

| Compound | IC50 (Human MDM2 (HDM2) 1-116) [nM] | IC50 (Human MDM4 (HDM4) 1-114) [nM] | IC50 (MOLM-13 cells) [nM] | IC50 (MV4-11 cells) [nM] | IC50 (WaGa cells) [nM] | IC50 (MKL-1 cells) [nM] |
| --- | --- | --- | --- | --- | --- | --- |
| CCCC(=O)O[C@H](C)[C@@H]1NC(=O)[C@H](Cc2ccc(F)cc2)NC(=O)CN(CCOC)C(=O)[C@@H](C)N(C)C(=O)[C@H](Cc2cscn2)NC(=O)[C@H](C)N(C)C(=O)[C@H](CCOC)NC(=O)[C@H]2CCCN2C(=O)[C@H](Cc2ccccc2)N(C)C(=O)[C@H](Cc2ccc(Cl)cc2)NC1=O [compound 6] (cyclo([Ala(4-thiazolyl)][dNMeA][Nme][Phe(4-F)]T(Butyryl)[Phe(4-Cl)][NMeF][dP][hSer](Me)[NMeA])) | 25 to 50 | 50 to 100 | 50 to 100 | < 50 | < 50 | < 500 |
| COCC[C@@H]1NC(=O)[C@H]2CCCN2C(=O)[C@H](Cc2ccc(F)cc2)N(C)C(=O)[C@H](Cc2ccc(Cl)cc2)NC(=O)[C@H]2N(CC2(C)C)C(=O)[C@H](Cc2ccc(F)cc2)NC(=O)CN(CCOC)C(=O)[C@@H](C)N(C)C(=O)[C@H](Cc2cscn2)NC(=O)[C@H](C)N(C)C1=O [compound 11] (cyclo([Ala(4-thiazolyl)][dNMeA][Nme][Phe(4-F)][X2][Phe(4-Cl)][NMePhe(4-F)][dP][hSer](Me)[NMeA])) | < 25 | < 25 | ≥ 150 | 100 to 150 | – | – |
| COCC[C@@H]1NC(=O)[C@H]2CCCN2C(=O)[C@H](Cc2ccccc2)N(C)C(=O)[C@H](Cc2ccc(Cl)cc2)NC(=O)[C@H]([C@@H](C)OC)N(C)C(=O)[C@H](Cc2ccc(F)cc2)NC(=O)CN(CCOC)C(=O)[C@@H](C)N(C)C(=O)[C@H](Cc2cscn2)NC(=O)[C@H](C)N(C)C1=O [compound 20] (cyclo([Ala(4-thiazolyl)][dNMeA][Nme][Phe(4-F)][NMeT](Me)[Phe(4-Cl)][NMeF][dP][hSer](Me)[NMeA])) | < 25 | 50 to 100 | – | – | – | – |
| COCC[C@@H]1NC(=O)[C@H]2CCCN2C(=O)[C@H](Cc2ccc(F)cc2)N(C)C(=O)[C@H](Cc2ccc(Cl)cc2)NC(=O)[C@@H]2CCN2C(=O)[C@H](Cc2ccc(F)cc2)NC(=O)CN(CCOC)C(=O)[C@@H](C)N(C)C(=O)[C@H](Cc2cscn2)NC(=O)[C@@H]2CCCN2C1=O [compound 21] (cyclo([Ala(4-thiazolyl)][dNMeA][Nme][Phe(4-F)][Aze][Phe(4-Cl)][NMePhe(4-F)][dP][hSer](Me)P)) | 50 to 100 | 50 to 100 | ≥ 150 | ≥ 150 | ≥ 150 | 1000 to 2000 |
| COCC[C@@H]1NC(=O)[C@H]2CCCN2C(=O)[C@H](Cc2ccc(F)cc2)N(C)C(=O)[C@H](Cc2ccc(Cl)cc2)NC(=O)[C@@H]2CCN2C(=O)[C@H](Cc2ccc(F)cc2)NC(=O)CN(CCOC)C(=O)[C@@H](C)N(C)C(=O)[C@H](Cc2cscn2)NC(=O)[C@H](C(C)C)N(C)C1=O [compound 22] (cyclo([Ala(4-thiazolyl)][dNMeA][Nme][Phe(4-F)][Aze][Phe(4-Cl)][NMePhe(4-F)][dP][hSer](Me)[NMeV])) | 25 to 50 | 25 to 50 | ≥ 150 | 50 to 100 | 50 to 100 | < 500 |
| COCC[C@@H]1NC(=O)[C@H]2CCCN2C(=O)[C@H](Cc2ccc(F)cc2)N(C)C(=O)[C@H](Cc2ccc(Cl)cc2)NC(=O)[C@@H]2CCN2C(=O)[C@H](Cc2ccc(F)cc2)NC(=O)CN(CCOC)C(=O)[C@@H](C)N(C)C(=O)[C@H](Cc2cscn2)NC(=O)CN(C)C1=O [compound 23] (cyclo([Ala(4-thiazolyl)][dNMeA][Nme][Phe(4-F)][Aze][Phe(4-Cl)][NMePhe(4-F)][dP][hSer](Me)[Sar])) | 50 to 100 | 50 to 100 | ≥ 150 | ≥ 150 | ≥ 150 | ≥ 2000 |
| CCCCN1CC(=O)N[C@@H](Cc2ccc(F)cc2)C(=O)N(C)C(C(C)C)C(=O)N[C@@H](Cc2ccc(Cl)cc2)C(=O)N(C)[C@@H](Cc2ccccc2)C(=O)N2CCC[C@@H]2C(=O)N[C@@H](CCOC)C(=O)N(C)[C@@H](C)C(=O)N[C@@H](Cc2cncs2)C(=O)N(C)[C@H](C)C1=O (stereo partly drawn) [compound 24] (cyclo([NMeA][Ala(thiazol-5-yl)][dNMeA][NBuGly][Phe(4-F)][ξNMeV][Phe(4-Cl)][NMeF][dP][hSer](Me))) | 25 to 50 | ≥ 100 | ≥ 150 | ≥ 150 | ≥ 150 | ≥ 2000 |
| CCN1CC(=O)N[C@@H](Cc2ccc(F)cc2)C(=O)N(C)[C@@H](C(C)C)C(=O)N[C@@H](Cc2ccc(Cl)cc2)C(=O)N(C)[C@@H](Cc2ccccc2)C(=O)N2CCC[C@@H]2C(=O)N[C@@H](CCOC)C(=O)N(C)[C@@H](C)C(=O)N[C@@H](Cc2cncs2)C(=O)N(C)[C@H](C)C1=O [compound 25] (cyclo([NEtG][Phe(4-F)][NMeV][Phe(4-Cl)][NMeF][dP][hSer](Me)[NMeA][Ala(thiazol-5-yl)][dNMeA])) | < 25 | ≥ 100 | ≥ 150 | 100 to 150 | ≥ 150 | 500 to 1000 |
| COCC[C@@H]1NC(=O)[C@H]2CCCN2C(=O)[C@H](Cc2ccccc2)N(C)C(=O)[C@H](Cc2ccc(Cl)cc2)NC(=O)[C@H](C(C)C)N(C)C(=O)[C@H](Cc2ccc(F)cc2)NC(=O)[C@H](C)N(C)C(=O)[C@@H](C)N(C)C(=O)[C@H](Cc2cncs2)NC(=O)[C@H](C)N(C)C1=O [compound 26] (cyclo([NMeA][Phe(4-F)][NMeV][Phe(4-Cl)][NMeF][dP][hSer](Me)[NMeA][Ala(thiazol-5-yl)][dNMeA])) | < 25 | 50 to 100 | 100 to 150 | 50 to 100 | 100 to 150 | 500 to 1000 |
| COCC[C@@H]1NC(=O)[C@H]2CCCN2C(=O)[C@H](Cc2ccccc2)N(C)C(=O)[C@H](Cc2ccc(Cl)cc2)NC(=O)[C@H](C(C)C)N(C)C(=O)[C@H](Cc2ccc(F)cc2)NC(=O)CN(C)C(=O)[C@@H](C)N(C)C(=O)[C@H](Cc2cncs2)NC(=O)[C@H](C)N(C)C1=O [compound 27] (cyclo([NMeA][Ala(thiazol-5-yl)][dNMeA][Sar][Phe(4-F)][NMeV][Phe(4-Cl)][NMeF][dP][hSer](Me))) | < 25 | ≥ 100 | ≥ 150 | 100 to 150 | 100 to 150 | 500 to 1000 |
